Values quoted from earlier work in patent publication EP4613273A1, “TREATMENT OF BONE LOSS” (priority 2024, dated 2025).

Biological target: T1, cathepsin K (Homo sapiens, UniProt P43235)
T1 construct: host or cells: patients with postmenopausal osteoporosis (endogenous enzyme)
T1 sequence (P43235 115-329): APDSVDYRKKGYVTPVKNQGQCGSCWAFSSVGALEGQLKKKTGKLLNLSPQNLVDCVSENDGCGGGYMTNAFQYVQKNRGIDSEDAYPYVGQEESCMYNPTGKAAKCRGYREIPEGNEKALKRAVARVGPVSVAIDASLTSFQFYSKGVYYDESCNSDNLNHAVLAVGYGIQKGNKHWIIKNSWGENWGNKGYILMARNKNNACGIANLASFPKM
Settings: cited from earlier work

For `CC(C)(F)C[C@H](N[C@@H](c1ccc(-c2ccc(S(C)(=O)=O)cc2)cc1)C(F)(F)F)C(=O)NC1(C#N)CC1` [Odanacatib], the “adverse effects leading to termination of development” value is listed as “cardio-cerebrovascular adverse effects”.
